Assay results: article PMC6906431, “Selective small molecule PARG inhibitor causes replication fork stalling and cancer cell death” (Nature Communications, 2019)

Experiments:
[1] = Sulforhodamine B (SRB) cytotoxicity assay; details: human, PC3 cells, Viability, without IR
[2] = tested on: PC3 cells; assay: Sulforhodamine B (SRB) cytotoxicity assay; details: Homo sapiens, PC-3, 72 h, without IR
[3] = Sulforhodamine B (SRB) cytotoxicity assay; assay type: cell-based, human; details: human, MRC-5 cells
Method: (§1) Fig. 6 Selective inhibition of PARG by xanthine derivative JA2131. a Clonogenic survival assays of PC3, MDA-MB-231, and MCF-7 cells treated with PARGi. Cells were treated with either DMSO or 10 µM JA2131 for 2 h, irradiated with 3 Gy (MDA-MB-231 and MCF-7), 7 Gy (PC3) IR and grown for ~2 weeks, then colonies were fixed with methanol and stained with crystal violet. The results of three independent experiments are shown. Error bars = the standard error of the mean (SEM). b dose-response of JA2131 in MDA-MB-231 cells with and without IR. Cells were treated with designated concentrations of JA2131 for 2 h and then either left untreated or exposed to 3 Gy IR and allowed to recover for 1 h before lysis. Total protein was immunoblotted with anti-PAR antibody (upper panel), stripped and reprobed with anti-PCNA as a loading control. c MDA-MB-231 cells with stable scrambled shRNA (WT) or stable PARG shRNA, knockdown (KD), were treated with 5 μM JA2131 for 2 h, lysed and then total lysates were immunoblotted for anti-PAR (upper panel) followed by anti-PARG (upper middle panel), anti-PARP1 (lower middle panel) and anti-actin (bottom panel) antibody. […] Stable cells with scramble shRNA (control) and shPARG (PARG-KD) cells were treated with an increasing concentration of JA2131 for growth inhibitory IC50 determination. The data was normalized against 100% survival at the lowest inhibitor concentration. Error bars show the percent coefficient of variation. Equivalent concentrations of DMSO were used as a negative control. e The cytotoxicity of JA2131 along with PDD, Veliparib and Doxorubicin against MRC-5 cells. Error bars show the percent coefficient of variation. f CETSA for in-cell JA2131 target engagement. Normalized anti-PARG western blot intensities of three independent experiments were fitted as above and the estimated aggregation temperature (Tagg) is shown in the tabulated insert. Source Data are provided as a Source Data file.

[4] = tested on: MRC-5 cells; assay: Sulforhodamine B (SRB) cytotoxicity assay; assay type: cell-based, human; details: Homo sapiens, MRC5, 72 h
Method: as §1

`COc1cccc2c1C(=O)c1c(O)c3c(c(O)c1C2=O)C[C@@](O)(C(=O)CO)C[C@@H]3O[C@H]1C[C@H](N)[C@H](O)[C@H](C)O1` [Doxorubicin] showed a viability at 72 h, 1.56 µM ([1]; log [concentration] μM 0.194) of 17.2%, a viability at 72 h, 3.13 µM ([1]; log [concentration] μM 0.495) of 11.1% and a viability at 72 h, 6.25 µM ([1]; log [concentration] μM 0.796) of 10.1%. The viability at 72 h, 12.5 µM ([1]; log [concentration] μM 1.097) was 9.95%, the viability at 72 h, 25 µM ([1]; log [concentration] μM 1.398) was 9.74% and the viability at 72 h, 50 µM ([1]; log [concentration] μM 1.699) was 9.95%. It also gave a viability at 72 h, 100 µM ([1]; log [concentration] μM 2) of 10.6%, a viability at 72 h, 200 µM ([1]; log [concentration] μM 2.301) of 13.8% and a viability at 72 h, 0.78 µM ([1]; log [concentration] μM -0.107) of 58.5%. It also gave a viability at 72 h, 0.39 µM ([1]; log [concentration] μM -0.408) of 95%, a viability at 72 h, 0.098 µM ([1]; log [concentration] μM -1.009) of 100% and an IC50 [2] of 810 ± 300 nM. For the same compound, the viability at 72 h, 1.55 µM ([3]; log [concentration] μM 0.19) was 50.4%, the viability at 72 h, 3.09 µM ([3]; log [concentration] μM 0.49) was 47.4% and the viability at 72 h, 6.31 µM ([3]; log [concentration] μM 0.8) was 50%. For the same compound, the viability at 72 h, 12.6 µM ([3]; log [concentration] μM 1.1) was 50%, the viability at 72 h, 25.1 µM ([3]; log [concentration] μM 1.4) was 45.6% and the viability at 72 h, 0.776 µM ([3]; log [concentration] μM -0.11) was 71.7%. The viability at 72 h, 0.389 µM ([3]; log [concentration] μM -0.41) was 96.5%, the viability at 72 h, 0.195 µM ([3]; log [concentration] μM -0.71) was 100% and the IC50 [4] was 741 ± 100 nM.
